What was measured:
Human δ-opioid (DOP) = biological target: T1, Human δ-opioid (DOP) (Homo sapiens, UniProt P41143); assay: Radioligand binding, human δ-opioid (DOP) membranes, FlashPlate, [3H]-Bremazocine; conditions: compound at 10 μM, [3H]-Bremazocine
T1 construct: purchased Perkin Elmer Biosignal
Summary of the method: (§1)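 Cloned human receptor membranes were coated onto FlashPlate wells and incubated with radioligand and compound (added from a 0.5 mM DMSO daughter plate) for 1 hour at room temperature in the dark. Scintillation counting gave percent inhibition, with DMSO defining total and reference ligand defining non-specific binding.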

Human κ-Opioid (KOP) = biological target: T2, Human κ-Opioid (KOP) (Homo sapiens, UniProt P41145); assay: Radioligand binding, human κ-opioid (KOP) membranes, filtration, [3H]-Diprenorphine; conditions: compound at 10 μM; [3H]-Diprenorphine
T2 construct: purchased Perkin Elmer Biosignal
T2 sequence (P41145 whole entry): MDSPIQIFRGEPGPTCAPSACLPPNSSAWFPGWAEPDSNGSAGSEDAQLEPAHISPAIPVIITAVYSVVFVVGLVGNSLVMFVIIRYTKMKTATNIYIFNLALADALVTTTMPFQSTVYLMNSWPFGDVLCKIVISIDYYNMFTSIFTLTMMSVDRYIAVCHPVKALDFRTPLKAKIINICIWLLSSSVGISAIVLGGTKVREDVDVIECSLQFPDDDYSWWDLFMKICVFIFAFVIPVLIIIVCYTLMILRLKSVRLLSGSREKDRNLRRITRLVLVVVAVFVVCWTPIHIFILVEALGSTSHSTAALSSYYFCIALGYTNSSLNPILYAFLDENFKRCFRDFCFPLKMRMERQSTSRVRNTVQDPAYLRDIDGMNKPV
Summary of the method: (§2)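 Filtration binding on cloned human receptor membranes (1 Unit/well), [125I]-Substance P for NK1 and [3H]-Diprenorphine for KOP, 1 h at room temperature. Filters PEI-presoaked, washed with cold 50 mM Tris-HCl pH 7.4, counted by scintillation; percent inhibition calculated, reference ligand defining non-specific binding.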

Human Melanocortin (MC3) = biological target: T3, Human Melanocortin (MC3) (Homo sapiens, UniProt P41968); assay: Radioligand binding, human melanocortin MC3 membranes, FlashPlate, [125I]-NDP-αMSH; conditions: compound at 10 μM; [125I]-NDP-αMSH
T3 construct: purchased Perkin Elmer Biosignal
T3 sequence (P41968 whole entry): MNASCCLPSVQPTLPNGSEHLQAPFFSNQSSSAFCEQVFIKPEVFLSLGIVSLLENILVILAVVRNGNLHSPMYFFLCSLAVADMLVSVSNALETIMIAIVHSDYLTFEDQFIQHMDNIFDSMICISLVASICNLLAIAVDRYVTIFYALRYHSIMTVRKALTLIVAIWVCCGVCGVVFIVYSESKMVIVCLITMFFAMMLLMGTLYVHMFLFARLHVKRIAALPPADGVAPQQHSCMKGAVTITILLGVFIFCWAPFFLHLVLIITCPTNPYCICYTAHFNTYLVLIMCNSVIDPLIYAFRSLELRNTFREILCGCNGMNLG
Summary of the method: as §1

Human Melanocortin (MC4) = biological target: T4, Human Melanocortin (MC4) (Homo sapiens, UniProt P32245); assay: Radioligand binding, human melanocortin MC4 membranes, FlashPlate, [125I]-NDP-αMSH; conditions: compound at 10 μM; [125I]-NDP-αMSH
T4 construct: purchased Perkin Elmer Biosignal
T4 sequence (P32245 whole entry): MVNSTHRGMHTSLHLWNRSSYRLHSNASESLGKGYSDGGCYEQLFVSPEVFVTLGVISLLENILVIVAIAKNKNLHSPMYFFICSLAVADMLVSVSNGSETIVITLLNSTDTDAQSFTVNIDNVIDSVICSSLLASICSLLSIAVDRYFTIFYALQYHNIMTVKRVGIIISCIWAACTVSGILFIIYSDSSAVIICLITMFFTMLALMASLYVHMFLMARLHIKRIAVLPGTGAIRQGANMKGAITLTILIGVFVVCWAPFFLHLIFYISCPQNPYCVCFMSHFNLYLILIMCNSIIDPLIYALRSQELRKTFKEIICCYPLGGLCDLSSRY
Summary of the method: as §1

Human melanocortin (MC5) = biological target: T5, Human melanocortin (MC5) (Homo sapiens, UniProt P33032); assay: Radioligand binding, human melanocortin MC5 membranes, FlashPlate, [125I]-NDP-αMSH; conditions: compound at 10 μM; [125I]-NDP-αMSH
T5 construct: purchased Perkin Elmer Biosignal
T5 sequence (P33032 whole entry): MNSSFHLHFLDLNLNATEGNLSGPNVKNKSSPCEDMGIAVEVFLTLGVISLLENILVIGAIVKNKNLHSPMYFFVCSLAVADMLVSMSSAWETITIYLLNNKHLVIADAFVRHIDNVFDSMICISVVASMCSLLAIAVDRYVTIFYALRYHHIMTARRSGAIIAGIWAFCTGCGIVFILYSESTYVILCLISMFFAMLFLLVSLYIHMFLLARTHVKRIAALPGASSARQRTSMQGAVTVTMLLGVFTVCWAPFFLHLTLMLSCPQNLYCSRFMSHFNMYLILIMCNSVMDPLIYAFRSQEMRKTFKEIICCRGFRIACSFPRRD
Summary of the method: as §1

[1] = biological target: T6, Human melanin-concentrating hormone (MCH1) (Homo sapiens, UniProt Q99705); assay: Radioligand binding, human melanin-concentrating hormone MCH1 membranes, FlashPlate, [125I]-S36057; conditions: compound at 10 μM; [125I]-S36057
T6 construct: purchased Perkin Elmer Biosignal
T6 sequence (Q99705 whole entry): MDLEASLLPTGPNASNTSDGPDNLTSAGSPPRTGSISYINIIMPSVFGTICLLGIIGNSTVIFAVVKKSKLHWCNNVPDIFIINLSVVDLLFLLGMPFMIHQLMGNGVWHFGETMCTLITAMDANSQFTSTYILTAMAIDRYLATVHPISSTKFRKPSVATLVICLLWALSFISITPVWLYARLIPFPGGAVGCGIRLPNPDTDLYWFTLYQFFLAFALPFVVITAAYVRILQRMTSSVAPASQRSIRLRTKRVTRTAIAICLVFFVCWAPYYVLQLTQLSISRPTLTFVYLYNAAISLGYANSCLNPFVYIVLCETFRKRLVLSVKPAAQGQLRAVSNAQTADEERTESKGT
Summary of the method: as §1

Human μ-opioid (MOP) = biological target: T7, Human μ-opioid (MOP) (Homo sapiens, UniProt P35372); assay: Radioligand binding, human μ-opioid (MOP) membranes, FlashPlate, [3H]-Naloxone; conditions: compound at 10 μM, [3H]-Naloxone
T7 construct: purchased Perkin Elmer Biosignal
T7 sequence (P35372 whole entry): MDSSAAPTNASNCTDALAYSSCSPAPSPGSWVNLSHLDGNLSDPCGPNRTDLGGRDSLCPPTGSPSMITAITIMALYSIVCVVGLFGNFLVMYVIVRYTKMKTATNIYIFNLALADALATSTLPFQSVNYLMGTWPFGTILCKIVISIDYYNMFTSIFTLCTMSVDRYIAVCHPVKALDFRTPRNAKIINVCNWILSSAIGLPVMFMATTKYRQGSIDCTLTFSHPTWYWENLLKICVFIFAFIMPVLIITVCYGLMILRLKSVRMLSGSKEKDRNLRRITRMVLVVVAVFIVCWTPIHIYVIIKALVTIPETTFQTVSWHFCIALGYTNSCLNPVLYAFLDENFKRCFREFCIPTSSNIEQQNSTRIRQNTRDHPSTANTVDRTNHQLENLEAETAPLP
Summary of the method: as §1

Human neurokinin (NK1) = biological target: T8, Human neurokinin (NK1) (Homo sapiens, UniProt P25103); assay: Radioligand binding, human neurokinin NK1 membranes, filtration, [125I]-Substance P; conditions: compound at 10 μM; [125I]-Substance P
T8 construct: purchased Perkin Elmer Biosignal
T8 sequence (P25103 whole entry): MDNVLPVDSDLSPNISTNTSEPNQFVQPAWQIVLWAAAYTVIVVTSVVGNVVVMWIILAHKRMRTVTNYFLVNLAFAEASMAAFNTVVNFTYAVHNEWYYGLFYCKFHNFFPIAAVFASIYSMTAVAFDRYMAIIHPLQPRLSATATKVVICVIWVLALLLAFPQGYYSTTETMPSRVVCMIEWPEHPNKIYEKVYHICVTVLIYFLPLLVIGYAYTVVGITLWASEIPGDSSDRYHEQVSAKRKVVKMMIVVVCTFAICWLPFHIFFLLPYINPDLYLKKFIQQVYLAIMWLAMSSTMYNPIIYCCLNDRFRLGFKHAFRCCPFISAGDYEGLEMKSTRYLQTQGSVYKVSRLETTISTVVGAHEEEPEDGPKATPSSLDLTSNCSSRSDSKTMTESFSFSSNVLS
Summary of the method: as §2

[2] = biological target: T9, Human neuropeptide Y (NPY-Y1) (Homo sapiens, UniProt P25929); assay: Radioligand binding, human neuropeptide Y NPY-Y1 membranes, FlashPlate, [125I]-PYY; conditions: compound at 10 μM; [125I]-PYY
T9 construct: purchased Perkin Elmer Biosignal
T9 sequence (P25929 1-384): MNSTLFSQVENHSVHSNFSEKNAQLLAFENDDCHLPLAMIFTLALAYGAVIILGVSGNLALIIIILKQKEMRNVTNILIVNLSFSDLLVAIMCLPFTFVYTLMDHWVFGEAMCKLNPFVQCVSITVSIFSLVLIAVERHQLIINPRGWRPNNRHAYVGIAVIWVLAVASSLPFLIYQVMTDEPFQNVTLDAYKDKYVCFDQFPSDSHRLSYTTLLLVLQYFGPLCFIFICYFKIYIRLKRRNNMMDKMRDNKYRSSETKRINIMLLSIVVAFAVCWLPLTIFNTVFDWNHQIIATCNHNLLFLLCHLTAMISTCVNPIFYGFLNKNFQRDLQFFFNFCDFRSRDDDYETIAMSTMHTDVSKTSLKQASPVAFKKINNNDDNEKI
Summary of the method: as §1

Human opioid (ORL1) = biological target: T10, Human opioid (ORL1) (Homo sapiens, UniProt P41146); assay: Radioligand binding, human opioid ORL1 membranes, FlashPlate, [125I]-Nociceptin; conditions: compound at 10 μM; [125I]-Nociceptin
T10 construct: purchased Perkin Elmer Biosignal
T10 sequence (P41146 whole entry): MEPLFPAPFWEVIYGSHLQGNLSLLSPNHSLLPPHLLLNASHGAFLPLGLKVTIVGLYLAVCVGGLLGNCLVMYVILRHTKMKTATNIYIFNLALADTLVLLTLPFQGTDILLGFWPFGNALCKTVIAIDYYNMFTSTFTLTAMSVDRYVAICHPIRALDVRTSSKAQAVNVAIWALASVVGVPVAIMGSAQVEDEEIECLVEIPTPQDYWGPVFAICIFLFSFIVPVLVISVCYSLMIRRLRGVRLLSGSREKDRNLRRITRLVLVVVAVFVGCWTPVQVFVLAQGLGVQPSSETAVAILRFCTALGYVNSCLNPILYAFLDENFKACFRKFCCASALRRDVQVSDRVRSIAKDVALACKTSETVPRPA
Summary of the method: as §1

Mouse urotensin (mUR2) = biological target: T11, Mouse urotensin (mUR2) (Mus musculus, UniProt Q8VIH9); assay: Radioligand binding, mouse urotensin mUR2 membranes, FlashPlate, [125I]-Urotensin II; conditions: compound at 10 μM; [125I]-Urotensin II
T11 construct: purchased Perkin Elmer Biosignal
T11 sequence (Q8VIH9 1-385): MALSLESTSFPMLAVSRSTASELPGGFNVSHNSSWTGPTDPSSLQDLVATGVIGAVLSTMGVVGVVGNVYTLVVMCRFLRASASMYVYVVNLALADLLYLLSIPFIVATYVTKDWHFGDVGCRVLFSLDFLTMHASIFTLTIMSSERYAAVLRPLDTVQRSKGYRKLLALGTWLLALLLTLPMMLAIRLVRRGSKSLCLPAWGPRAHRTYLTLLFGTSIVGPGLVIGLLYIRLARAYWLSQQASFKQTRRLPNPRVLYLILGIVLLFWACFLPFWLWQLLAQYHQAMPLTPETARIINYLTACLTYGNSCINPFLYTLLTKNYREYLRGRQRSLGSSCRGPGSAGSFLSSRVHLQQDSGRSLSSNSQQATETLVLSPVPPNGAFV
Summary of the method: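 Cloned mouse urotensin (mUR2) receptor membranes from Perkin Elmer Biosignal were immobilized in FlashPlate microplates using a proprietary coating. Each well got 19.5 μl buffer, then 0.5 μl of DMSO, reference ligand, or compound. Adding 5 μl of [125I]-Urotensin II, diluted to 5× final concentration in binding buffer, started binding. Plates were sealed with TopSeal-A and incubated 1 hour at room temperature in the dark. Wells were counted for 30 seconds each on a TopCount after a 60-second delay, and percentage inhibition was calculated.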

T1 sequence (P41143 whole entry): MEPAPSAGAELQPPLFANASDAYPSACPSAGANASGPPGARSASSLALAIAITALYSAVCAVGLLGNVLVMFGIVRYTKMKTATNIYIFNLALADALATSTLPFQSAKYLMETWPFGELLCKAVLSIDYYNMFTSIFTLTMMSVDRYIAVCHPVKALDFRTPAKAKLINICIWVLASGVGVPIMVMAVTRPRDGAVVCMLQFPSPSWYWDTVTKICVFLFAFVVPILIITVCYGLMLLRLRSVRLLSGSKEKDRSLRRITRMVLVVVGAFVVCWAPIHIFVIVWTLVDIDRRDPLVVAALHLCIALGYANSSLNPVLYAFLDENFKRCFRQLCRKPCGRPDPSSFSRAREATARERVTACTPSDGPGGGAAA

Structure (SMILES): N=C(N)NCCC(=O)N[C@H]1C(OCc2ccc(Cl)cc2)O[C@H](COCc2ccc3ccccc3c2)[C@@H](O)[C@@H]1OCc1ccc(-c2ccccc2)cc1 (stereo partly drawn) [compound 534]
- A1: inhibition of radioligand binding, human δ-opioid (DOP) (Human δ-opioid (DOP)): − (“−” indicates less than 50% inhibition at 10 μM)
- A2: inhibition of radioligand binding, human κ-opioid (KOP) (Human κ-Opioid (KOP)): − (“−” indicates less than 50% inhibition at 10 μM)
- A3: inhibition of radioligand binding, human melanocortin (MC3) (Human Melanocortin (MC3)): + (“+” indicates greater than 50% inhibition at 10 μM)
- A4: inhibition of radioligand binding, human melanocortin (MC4) (Human Melanocortin (MC4)): + (“+” indicates greater than 50% inhibition at 10 μM)
- A5: inhibition of radioligand binding, human melanocortin (MC5) (Human melanocortin (MC5)): + (“+” indicates greater than 50% inhibition at 10 μM)
- A6: inhibition of radioligand binding, human melanin-concentrating hormone (MCH1) [1]: + (“+” indicates greater than 50% inhibition at 10 μM)
- A7: inhibition of radioligand binding, human μ-opioid (MOP) (Human μ-opioid (MOP)): − (“−” indicates less than 50% inhibition at 10 μM)
- A8: inhibition of radioligand binding, human neurokinin (NK1) (Human neurokinin (NK1)): + (“+” indicates greater than 50% inhibition at 10 μM)
- A9: inhibition of radioligand binding, human neuropeptide Y (NPY-Y1) [2]: − (“−” indicates less than 50% inhibition at 10 μM)
- A10: inhibition of radioligand binding, human opioid (ORL1) (Human opioid (ORL1)): − (“−” indicates less than 50% inhibition at 10 μM)
- A11: inhibition of radioligand binding, mouse urotensin (mUR2) (Mouse urotensin (mUR2)): − (“−” indicates less than 50% inhibition at 10 μM)

Structure (SMILES): N=C(N)NCCC(=O)N[C@H]1C(OCc2ccc(Cl)cc2)O[C@H](COCc2ccccc2)[C@@H](O)[C@@H]1OCc1ccc(-c2ccccc2)cc1 (stereo partly drawn) [compound 535]
- A1: inhibition of radioligand binding, human δ-opioid (DOP) (Human δ-opioid (DOP); 10 µM): + (“+” indicates greater than 50% inhibition at 10 μM)
- A2: inhibition of radioligand binding, human κ-opioid (KOP) (Human κ-Opioid (KOP)): + (“+” indicates greater than 50% inhibition at 10 μM)
- A3: inhibition of radioligand binding, human melanocortin (MC3) (Human Melanocortin (MC3)): + (“+” indicates greater than 50% inhibition at 10 μM)
- A4: inhibition of radioligand binding, human melanocortin (MC4) (Human Melanocortin (MC4)): + (“+” indicates greater than 50% inhibition at 10 μM)
- A5: inhibition of radioligand binding, human melanocortin (MC5) (Human melanocortin (MC5)): + (“+” indicates greater than 50% inhibition at 10 μM)
- A6: inhibition of radioligand binding, human melanin-concentrating hormone (MCH1) [1]: + (“+” indicates greater than 50% inhibition at 10 μM)
- A7: inhibition of radioligand binding, human μ-opioid (MOP) (Human μ-opioid (MOP); 10 µM): + (“+” indicates greater than 50% inhibition at 10 μM)
- A8: inhibition of radioligand binding, human neurokinin (NK1) (Human neurokinin (NK1)): + (“+” indicates greater than 50% inhibition at 10 μM)
- A9: inhibition of radioligand binding, human neuropeptide Y (NPY-Y1) [2]: − (“−” indicates less than 50% inhibition at 10 μM)
- A10: inhibition of radioligand binding, human opioid (ORL1) (Human opioid (ORL1)): − (“−” indicates less than 50% inhibition at 10 μM)
- A11: inhibition of radioligand binding, mouse urotensin (mUR2) (Mouse urotensin (mUR2)): − (“−” indicates less than 50% inhibition at 10 μM)

Structure (SMILES): N=C(N)NCCC(=O)N[C@H]1C(OCc2ccc(Cl)cc2)O[C@H](COCc2ccccc2)[C@@H](O)[C@@H]1OCc1ccc(-c2ccccc2)cc1 (stereo partly drawn) [compound 536]
- A1: inhibition of radioligand binding, human δ-opioid (DOP) (Human δ-opioid (DOP); 10 µM): − (“−” indicates less than 50% inhibition at 10 μM)
- A2: inhibition of radioligand binding, human κ-opioid (KOP) (Human κ-Opioid (KOP)): + (“+” indicates greater than 50% inhibition at 10 μM)
- A3: inhibition of radioligand binding, human melanocortin (MC3) (Human Melanocortin (MC3)): + (“+” indicates greater than 50% inhibition at 10 μM)
- A4: inhibition of radioligand binding, human melanocortin (MC4) (Human Melanocortin (MC4)): + (“+” indicates greater than 50% inhibition at 10 μM)
- A5: inhibition of radioligand binding, human melanocortin (MC5) (Human melanocortin (MC5)): + (“+” indicates greater than 50% inhibition at 10 μM)
- A6: inhibition of radioligand binding, human melanin-concentrating hormone (MCH1) [1]: + (“+” indicates greater than 50% inhibition at 10 μM)
- A7: inhibition of radioligand binding, human μ-opioid (MOP) (Human μ-opioid (MOP); 10 µM): − (“−” indicates less than 50% inhibition at 10 μM)
- A8: inhibition of radioligand binding, human neurokinin (NK1) (Human neurokinin (NK1)): + (“+” indicates greater than 50% inhibition at 10 μM)
- A9: inhibition of radioligand binding, human neuropeptide Y (NPY-Y1) [2]: − (“−” indicates less than 50% inhibition at 10 μM)
- A10: inhibition of radioligand binding, human opioid (ORL1) (Human opioid (ORL1)): − (“−” indicates less than 50% inhibition at 10 μM)
- A11: inhibition of radioligand binding, mouse urotensin (mUR2) (Mouse urotensin (mUR2)): − (“−” indicates less than 50% inhibition at 10 μM)

Reference: patent publication US20080009418A1, “Selective Inhibitors” (Alchemia LTD., priority 2004, published 2008)
